Results reported in patent publication US20100022491A1, “4-HYDROXY-2-OXO-2,3-DIHYDRO-1,3-BENZOTHIAZOL-7YL COMPOUNDS FOR MODULATION OF B2-ADRENORECEPTOR ACTIVITY” (ASTRAZENECA AB, priority 2006, published 2010).
Structures can show the parent of a compound that is named as a salt.

Experiments:
[1] = biological target: T1, recombinant human Dopamine Subtype D2s receptors (Homo sapiens, UniProt P14416); assay: Dopamine D2 selectivity binding assay ([3H]-spiperone); details: inhibition of [3H]-spiperone (0.16 nM) binding; for IC50: read-out: D2 bind pIC50 (converted)
T1 construct: purchased Perkin Elmer
T1 sequence (P14416 1-414 isoform P14416-2): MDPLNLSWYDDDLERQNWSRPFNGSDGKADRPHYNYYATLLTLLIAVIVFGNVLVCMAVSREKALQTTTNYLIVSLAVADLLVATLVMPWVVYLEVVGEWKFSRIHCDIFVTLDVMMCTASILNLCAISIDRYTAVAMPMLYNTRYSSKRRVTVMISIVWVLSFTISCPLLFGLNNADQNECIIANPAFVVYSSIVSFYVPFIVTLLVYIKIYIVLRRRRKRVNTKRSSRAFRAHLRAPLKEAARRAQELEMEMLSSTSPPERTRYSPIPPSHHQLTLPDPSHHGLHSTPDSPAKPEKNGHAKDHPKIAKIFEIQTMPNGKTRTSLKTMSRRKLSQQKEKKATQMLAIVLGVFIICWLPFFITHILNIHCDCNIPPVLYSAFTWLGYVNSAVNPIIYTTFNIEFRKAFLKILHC
In short: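 Displacement of [3H]-spiperone (0.16 nM final) from human D2s receptor membranes in pH 7.4 HEPES buffer over 2 h at room temperature, then filtration and scintillation counting. Specific binding taken as vehicle minus 10 μM haloperidol wells. Potency given as pIC50 from a four-parameter logistic curve.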

[2] = biological target: T2, recombinant human adrenergic beta 1 receptors (Homo sapiens, UniProt P08588); assay: Adrenergic β1 selectivity binding assay ([125I]-Iodocyanopindolol); details: inhibition of [125I]-Iodocyanopindolol (0.036 nM) binding; for IC50: read-out: β1 bind p IC50 (converted)
T2 construct: purchased Euroscreen
T2 sequence (P08588 whole entry): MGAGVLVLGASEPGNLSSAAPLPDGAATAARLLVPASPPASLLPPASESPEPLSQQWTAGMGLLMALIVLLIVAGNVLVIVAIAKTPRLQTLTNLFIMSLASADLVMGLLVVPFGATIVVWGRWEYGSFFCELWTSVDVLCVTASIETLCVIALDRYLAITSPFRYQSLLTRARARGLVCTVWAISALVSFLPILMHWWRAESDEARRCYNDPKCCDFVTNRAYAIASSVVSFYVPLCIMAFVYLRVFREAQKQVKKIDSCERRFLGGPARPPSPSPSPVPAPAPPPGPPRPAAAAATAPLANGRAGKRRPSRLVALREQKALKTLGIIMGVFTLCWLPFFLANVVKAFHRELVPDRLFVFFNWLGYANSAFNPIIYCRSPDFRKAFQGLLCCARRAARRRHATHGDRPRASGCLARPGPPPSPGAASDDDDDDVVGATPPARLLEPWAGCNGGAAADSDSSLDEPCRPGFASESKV
Method: Membranes containing recombinant human adrenergic beta 1 receptors were obtained from Euroscreen. These were diluted in Assay Buffer (50 mM HEPES, 1 mM EDTA, 120 mM NaCl, 0.1% gelatin, pH 7.4) to provide a final concentration of membranes that gave a clear window between maximum and minimum specific binding.
Assays were performed in U-bottomed 96-well polypropylene plates. 10 μL [^125I]-Iodocyanopindolol (0.036 nM final concentration) and 10 μL of test compound (10× final concentration) were added to each test well. For each assay plate 8 replicates were obtained for [^125I]-Iodocyanopindolol binding in the presence of 10 μL vehicle (10% (v/v) DMSO in Assay Buffer; defining maximum binding) or 10 μL Propranolol (10 μM final concentration; defining non-specific binding (NSB)). Membranes were then added to achieve a final volume of 100 μL. The plates were incubated for 2 hours at room temperature and then filtered onto PEI coated GF/B filter plates, pre-soaked for 1 hour in Assay Buffer, using a 96-well plate Tomtec cell harvester. Five washes with 250 μL wash buffer (50 mM HEPES, 1 mM EDTA, 120 mM NaCl, pH 7.4) were performed at 4° C. to remove unbound radioactivity. The plates were dried then sealed from underneath using Packard plate sealers and MicroScint-O (50 μL) was added to each well. The plates were sealed (TopSeal A) and filter-bound radioactivity was measured with a scintillation counter (TopCount, Packard BioScience) using a 3-minute counting protocol.
Total specific binding (B0) was determined by subtracting the mean NSB from the mean maximum binding. NSB values were also subtracted from values from all other wells. […] Data was fitted to a four parameter logistic equation to determine the compound potency, which was expressed as pIC50 (negative log molar concentration inducing 50% inhibition of [^125I]-Iodocyanopindolol binding).

Adrenergic β2 = biological target: T3, Adrenergic β2 (Homo sapiens, UniProt P07550); assay: Adrenergic β2 mediated cAMP production in H292 cells; format: cell-based; details: for EC50: read-out: β2 pEC50 (converted); for β2 Int Act: Intrinsic Activity as a fraction relative to the maximum activity determined for formoterol
T3 construct: Adherent H292 cells were removed from tissue culture flasks; endogenous in cells; host or cells: H292 cells
T3 sequence (P07550 whole entry): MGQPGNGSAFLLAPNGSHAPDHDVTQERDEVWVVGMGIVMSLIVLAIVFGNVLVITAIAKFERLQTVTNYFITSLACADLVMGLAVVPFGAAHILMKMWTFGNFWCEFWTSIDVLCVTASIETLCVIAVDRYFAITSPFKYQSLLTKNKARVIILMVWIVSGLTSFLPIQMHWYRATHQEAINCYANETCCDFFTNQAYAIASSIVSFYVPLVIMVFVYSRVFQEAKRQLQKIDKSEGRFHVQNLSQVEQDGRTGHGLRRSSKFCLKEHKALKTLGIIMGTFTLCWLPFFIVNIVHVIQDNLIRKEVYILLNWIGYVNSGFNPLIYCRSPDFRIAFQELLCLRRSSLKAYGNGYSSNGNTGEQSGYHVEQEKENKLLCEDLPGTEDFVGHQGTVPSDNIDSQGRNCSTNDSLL
In short: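 cAMP accumulation in adherent H292 cells, measured by AlphaScreen and calibrated with cAMP standards. Compounds incubated 60 min at room temperature after 10 min rolipram (final 300 μM; vehicle 1.6% DMSO). pEC50 and intrinsic activity, as a fraction of formoterol's maximum, from four-parameter logistic fit.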

[3] = H292 cells, cAMP by AlphaScreen, 60 minutes at room temperature, rolipram 300 μM

| IC50 [1] [nM] | IC50 [2] [nM] | EC50 (Adrenergic β2; [3]) [nM] | β2 Int Act (Adrenergic β2) | SMILES | D2 bind pIC50 [1] | β1 bind p IC50 [2] | β2 pEC50 (Adrenergic β2; [3]) |
| --- | --- | --- | --- | --- | --- | --- | --- |
|  |  |  |  | O=C(CCNCCc1cccc(F)c1F)N(CCNCCc1ccc(O)c2[nH]c(=O)sc12)C1CCCCC1 [Example 93, N-Cyclohexyl-N^3-[2-(2,3-difluorophenyl)ethyl]-N-(2-{[2-(4-hydroxy-2-oxo-2,3-dihydro-1,3-benzothiazol-7-yl)ethyl]amino}ethyl)-β-alaninamide dihydrobromide salt] | 6.5 | 5.2 | 8.6 |
| 398 | 631 | 10 | 0.91 | O=C(CCNC[C@H](O)c1ccccc1)N(CCNCCc1ccc(O)c2[nH]c(=O)sc12)C1CCCCC1 [Example 75, N^1-Cyclohexyl-N^1-(2-{[2-(4-hydroxy-2-oxo-2,3-dihydro-1,3-benzothiazol-7-yl)ethyl]amino}ethyl)-N^3-[(2R)-2-hydroxy-2-phenylethyl]-β-alaninamide bis-trifluoroacetic acid salt] |  |  |  |
| 100 | 2510 | 10 | 0.55 | O=C(CCNCCc1ccc(Cl)cc1)N(CCNCCc1ccc(O)c2[nH]c(=O)sc12)C1CCC(F)(F)CC1 [Example 48, N^3-[2-(4-Chlorophenyl)ethyl]-N^1-(4,4-difluorocyclohexyl)-N^1-(2-{[2-(4-hydroxy-2-oxo-2,3-dihydro-1,3-benzothiazol-7-yl)ethyl]amino}ethyl)-β-alaninamide bis-trifluoroacetic acid salt] |  |  |  |
| 398 | 7940 | 2 | 0.75 | O=C(CCNCCc1ccc(O)cc1)N(CCNCCc1ccc(O)c2[nH]c(=O)sc12)C1CCCCC1 [Example 34, N-Cyclohexyl-N-(2-{[2-(4-hydroxy-2-oxo-2,3-dihydro-1,3-benzothiazol-7-yl)ethyl]amino}ethyl)-N^3-[2-(4-hydroxyphenyl)ethyl]-β-alaninamide bis-trifluoroacetic acid salt] |  |  |  |
| 398 | 794 | 5.01 | 0.85 | O=C(CCNCCc1ccccc1)N(CCNCCc1ccc(O)c2[nH]c(=O)sc12)CC12CC3CC(CC(C3)C1)C2 [Example 59, N^1-(1-Adamantylmethyl)-N^1-(2-{[2-(4-hydroxy-2-oxo-2,3-dihydro-1,3-benzothiazol-7-yl)ethyl]amino}ethyl)-N^3-(2-phenylethyl)-β-alaninamide bis-trifluoroacetic acid salt] |  |  |  |
| 200 | 6310 | 316 | 0.70 | CCCC(CCC)N(CCNCCc1ccc(O)c2[nH]c(=O)sc12)C(=O)CCNCCc1ccc(F)cc1 [Example 64, N^3-[2-(4-Fluorophenyl)ethyl]-N^1-(2-{[2-(4-hydroxy-2-oxo-2,3-dihydro-1,3-benzothiazol-7-yl)ethyl]amino}ethyl)-N^1-(1-propylbutyl)-β-alaninamide bis-trifluoroacetic acid salt] |  |  |  |
| 39.8 | 1580 | 3.16 | 0.92 | O=C(CCNCCc1cccs1)N(CCNCCc1ccc(O)c2[nH]c(=O)sc12)C1CCCCCC1 [Example 52, N^1-Cycloheptyl-N^1-(2-{[2-(4-hydroxy-2-oxo-2,3-dihydro-1,3-benzothiazol-7-yl)ethyl]amino}ethyl)-N^3-[2-(2-thienyl)ethyl]-β-alaninamide bis-trifluoroacetic acid salt] |  |  |  |
| 316 | 3980 | 3.98 | 0.91 | O=C(CCNCCc1cccs1)N(CCNCCc1ccc(O)c2[nH]c(=O)sc12)C1CCCCC1 [Example 35, N-Cyclohexyl-N-(2-{[2-(4-hydroxy-2-oxo-2,3-dihydro-1,3-benzothiazol-7-yl)ethyl]amino}ethyl)-N^3-[2-(2-thienyl)ethyl]-β-alaninamide bis-trifluoroacetic acid salt] |  |  |  |
| 39.8 | 1580 | 3.16 | 0.78 | O=C(CCNCCc1ccccc1Cl)N(CCNCCc1ccc(O)c2[nH]c(=O)sc12)C1CCC(F)(F)CC1 [Example 46, N^3-[2-(2-Chlorophenyl)ethyl]-N^1-(4,4-difluorocyclohexyl)-N^1-(2-{[2-(4-hydroxy-2-oxo-2,3-dihydro-1,3-benzothiazol-7-yl)ethyl]amino}ethyl)-β-alaninamide bis-trifluoroacetic acid salt] |  |  |  |
| 63.1 | 5010 | 3.98 | 0.71 | O=C(CCNCCc1cc(F)ccc1F)N(CCNCCc1ccc(O)c2[nH]c(=O)sc12)C1CCCCCC1 [Example 83, N^1-Cycloheptyl-N^3-[2-(2,5-difluorophenyl)ethyl]-N^1-(2-{[2-(4-hydroxy-2-oxo-2,3-dihydro-1,3-benzothiazol-7-yl)ethyl]amino}ethyl)-β-alaninamide bis-trifluoroacetic acid salt] |  |  |  |
| 79.4 | 1260 | 79.4 | 0.23 | CCCC[C@H](C)N(CCNCCc1ccc(O)c2[nH]c(=O)sc12)C(=O)CCNCCc1ccccc1 [Example 102, N-(2-{[2-(4-Hydroxy-2-oxo-2,3-dihydro-1,3-benzothiazol-7-yl)ethyl]amino}ethyl)-N-[(1S)-1-methylpentyl]-N^3-(2-phenylethyl)-β-alaninamide bis-trifluoroacetic acid salt] |  |  |  |
| 200 | 1580 | 31.6 | 0.99 | O=C(CCNCCc1ccccc1)N(CCNCCc1ccc(O)c2[nH]c(=O)sc12)C1Cc2ccccc2C1 [Example 41, N^1-(2,3-Dihydro-1H-inden-2-yl)-N^1-(2-{[2-(4-hydroxy-2-oxo-2,3-dihydro-1,3-benzothiazol-7-yl)ethyl]amino}ethyl)-N^3-(2-phenylethyl)-β-alaninamide bis-trifluoroacetic acid salt] |  |  |  |
| 316 | 1580 | 6.31 | 0.86 | CC(CN(C(=O)CCNCCc1ccccc1)C1CCCCC1)NCCc1ccc(O)c2[nH]c(=O)sc12 (stereo not drawn) [Example 105, N-Cyclohexyl-N-(2-{[2-(4-hydroxy-2-oxo-2,3-dihydro-1,3-benzothiazol-7-yl)ethyl]amino}propyl)-N^3-(2-phenylethyl)-β-alaninamide bis-trifluoroacetic acid salt] |  |  |  |
| 7940 | 3980 | 2.51 | 0.96 | O=C(CCNCCc1cccc(Cl)c1)N(CCNCCc1ccc(O)c2[nH]c(=O)sc12)C1CCOCC1 [Example 22, N^3-[2-(3-Chlorophenyl)ethyl]-N-(2-{[2-(4-hydroxy-2-oxo-2,3-dihydro-1,3-benzothiazol-7-yl)ethyl]amino}ethyl)-N-(tetrahydro-2H-pyran-4-yl)-β-alaninamide bis-trifluoroacetic acid salt] |  |  |  |
| 31.6 | 3980 | 2.51 | 0.98 | CCCC[C@@H](C)N(CCNCCc1ccc(O)c2[nH]c(=O)sc12)C(=O)CCNCCc1ccccc1 [Example 101, N-(2-{[2-(4-Hydroxy-2-oxo-2,3-dihydro-1,3-benzothiazol-7-yl)ethyl]amino}ethyl)-N-[(1R)-1-methylpentyl]-N^3-(2-phenylethyl)-β-alaninamide bis-trifluoroacetic acid salt] |  |  |  |

| SMILES | IC50 [1] [nM] | IC50 [2] [nM] | EC50 (Adrenergic β2; [3]) [nM] | β2 Int Act (Adrenergic β2) | D2 bind pIC50 [1] | β1 bind p IC50 [2] | β2 pEC50 (Adrenergic β2; [3]) |
| --- | --- | --- | --- | --- | --- | --- | --- |
| O=C(CCNCCc1ccc(Cl)c(Cl)c1)N(CCNCCc1ccc(O)c2[nH]c(=O)sc12)C1CCOCC1 [Example 24, N^3-[2-(3,4-Dichlorophenyl)ethyl]-N-(2-{[2-(4-hydroxy-2-oxo-2,3-dihydro-1,3-benzothiazol-7-yl)ethyl]amino}ethyl)-N-(tetrahydro-2H-pyran-4-yl)-β-alaninamide bis-trifluoroacetic acid salt] | 794 | 2000 | 7.94 | 0.77 |  |  |  |
